Measured values reported in ChEMBL document CHEMBL1147552, “Novel CCR1 antagonists with improved metabolic stability” (Bioorg Med Chem Lett, 2004).
≈ marks a conversion by molar mass, not a printed value.

Columns and labels:
[1] = Plasma clearance of compound was determined in dog
[2] = Elimination Half-life of compound was determined in dog; conditions: in vivo
[3] = Oral bioavailability in monkey; conditions: cercopithecidae, in vivo
[4] = Plasma clearance of compound was determined in monkey; conditions: cercopithecidae
[5] = Volume of distribution of compound was determined in monkey; conditions: cercopithecidae, in vivo
[6] = Volume of distribution of compound was determined in dog; conditions: in vivo
[7] = Aqueous solubility of compound was determined
[8] = target: T1, C-C chemokine receptor type 1 (Homo sapiens, UniProt P32246); experiment: Inhibition of CCL3 binding to C-C chemokine receptor type 1
T1 sequence (P32246 whole entry): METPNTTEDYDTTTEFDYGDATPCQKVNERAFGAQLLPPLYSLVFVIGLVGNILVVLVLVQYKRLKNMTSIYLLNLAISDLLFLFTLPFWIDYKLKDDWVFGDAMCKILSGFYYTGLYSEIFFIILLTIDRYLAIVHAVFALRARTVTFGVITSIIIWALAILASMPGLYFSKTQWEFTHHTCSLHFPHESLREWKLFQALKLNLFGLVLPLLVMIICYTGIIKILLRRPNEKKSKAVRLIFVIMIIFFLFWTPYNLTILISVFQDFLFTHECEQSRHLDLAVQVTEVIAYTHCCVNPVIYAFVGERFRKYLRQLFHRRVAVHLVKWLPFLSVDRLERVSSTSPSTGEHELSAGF

[9] = organism: Homo sapiens; conditions: Liver, Microsome
Description: In vitro oxidative metabolic stability measured by the rate of drug consumption in human liver microsomes as intrinsic clearance values

Row | Structure (SMILES) | IC50 [8] [nM] | CL (mL.min-1.kg-1) [9] | also measured
1 | NC(=O)C(C[C@H](O)[C@H](Cc1ccccc1)NC(=O)c1cnc2ccccc2n1)C1CCC(F)(F)CC1 (stereo partly specified) | 20 |  | 
2 | NC(=O)C(C[C@H](O)[C@H](Cc1ccccc1)NC(=O)c1cnc2ccccc2n1)C1CCOCC1 (stereo partly specified) | 3460 |  | 
3 | CC(C)(O)CCC(C[C@H](O)[C@H](Cc1ccc(F)cc1)NC(=O)c1cnc2ccccc2n1)C(N)=O (stereo partly specified) | > 25000 |  | 
4 | CC(C)(F)CC[C@H](C[C@H](O)[C@H](Cc1ccccc1)NC(=O)c1cnc2ccccc2n1)C(N)=O | 9 |  | 
5 | CC(C)(F)CCC(C[C@H](O)[C@H](Cc1ccccc1)NC(=O)c1cnc2ccccc2n1)C(=O)NO (stereo partly specified) | 27 |  | 
6 | CC(C)(F)CCC(C[C@H](O)[C@H](Cc1ccccc1)NC(=O)c1cnc2ccccc2n1)C(=O)N1CCCC1 (stereo partly specified) | 2320 |  | 
7 | CCNC(=O)C(CCC(C)(C)F)C[C@H](O)[C@H](Cc1ccccc1)NC(=O)c1cnc2ccccc2n1 (stereo partly specified) | 75 |  | 
8 | NC(=O)C(C[C@H](O)[C@H](Cc1ccccc1)NC(=O)c1cnc2ccccc2n1)C1(O)CCC(F)(F)CC1 (stereo partly specified) | 56 | 6.4 | 

Now from value to compound, other results behind:

Row | IC50 [8] [nM] | Structure (SMILES) | CL (mL.min-1.kg-1) [9] | also measured
9 | 7 | O=C(N[C@@H](Cc1ccccc1)[C@@H](O)CC(C(=O)NO)C1CCC(F)(F)CC1)c1cnc2ccccc2n1 (stereo partly specified) | 6.1 | clearance [1]: 38 mL/min/kg; half-life [2]: 30 min; bioavailability [3]: < 1.1%; clearance [4]: 33 mL/min/kg; Vd [5]: 1.8 L/kg; Vd [6]: 1.3 L/kg; solubility [7]: 12 µg/mL (≈ 23.4 µM)
10 | 850 | CC(C)(F)CCC(C[C@H](O)[C@H](Cc1ccccc1)NC(=O)c1cnc2ccccc2n1)C(=O)NCc1ccccc1 (stereo partly specified) |  | 
11 | 8 | NC(=O)C(C[C@H](O)[C@H](Cc1ccccc1)NC(=O)c1cnc2ccccc2n1)C1CCCCC1 (stereo partly specified) | 242 | 
12 | 54 | NC(=O)C(C[C@H](O)[C@H](Cc1ccccc1)NC(=O)c1cnc2ccccc2n1)C1(O)CCCCC1 (stereo partly specified) | 47.7 | 
13 | 7 | CC(C)(F)CCC(C[C@H](O)[C@H](Cc1ccccc1)NC(=O)c1cnc2ccccc2n1)C(=O)NN (stereo partly specified) | 32.7 | 
14 | 5600 | CN1CCN(C(=O)C(CCC(C)(C)F)C[C@H](O)[C@H](Cc2ccccc2)NC(=O)c2cnc3ccccc3n2)CC1 (stereo partly specified) | 647 | 
15 | 52 | CC(C)(O)CCC(C[C@H](O)[C@H](Cc1ccccc1F)NC(=O)c1cnc2ccccc2n1)C(N)=O (stereo partly specified) | 16.5 | 
16 | 580 | CC(C)(O)CC[C@H](C[C@H](O)[C@H](Cc1ccccc1)NC(=O)c1cnc2ccccc2n1)C(N)=O | 4.9 | 
